Legend:
[1] = biological target: T1, cGMP-specific 3',5'-cyclic phosphodiesterase (Bos taurus, UniProt Q28156); assay: Optimum inhibitory concentration required to inhibit c-GMP specific Phosphodiesterase 5 (PDE5) of bovine lung
[2] = biological target: Dual specificity calcium/calmodulin-dependent 3',5'-cyclic nucleotide phosphodiesterase 1A (Bos taurus, UniProt P14100); assay: Optimum inhibitory concentration required to inhibit c-GMP specific phosphodiesterase 1 (PDE1) of bovine aorta
Phosphodiesterase 3 [3] = biological target: T2, Phosphodiesterase 3 (Homo sapiens, UniProt Q14432+Q13370); assay: Optimum inhibitory concentration required to inhibit […] (PDE3); assay type: protein assay
[4] = biological target: T1, cGMP-specific 3',5'-cyclic phosphodiesterase; assay: Inhibition of c-GMP specific phosphodiesterase PDE5 of bovine lung
Phosphodiesterase 3 [5] = biological target: T2, Phosphodiesterase 3; assay: Inhibition of cGMP-inhibited phosphodiesterase 3 (PDE3); assay type: protein assay

Dual specificity calcium/calmodulin-dependent 3',5'-cyclic nucleotide phosphodiesterase 1A, sequence (P14100 whole entry): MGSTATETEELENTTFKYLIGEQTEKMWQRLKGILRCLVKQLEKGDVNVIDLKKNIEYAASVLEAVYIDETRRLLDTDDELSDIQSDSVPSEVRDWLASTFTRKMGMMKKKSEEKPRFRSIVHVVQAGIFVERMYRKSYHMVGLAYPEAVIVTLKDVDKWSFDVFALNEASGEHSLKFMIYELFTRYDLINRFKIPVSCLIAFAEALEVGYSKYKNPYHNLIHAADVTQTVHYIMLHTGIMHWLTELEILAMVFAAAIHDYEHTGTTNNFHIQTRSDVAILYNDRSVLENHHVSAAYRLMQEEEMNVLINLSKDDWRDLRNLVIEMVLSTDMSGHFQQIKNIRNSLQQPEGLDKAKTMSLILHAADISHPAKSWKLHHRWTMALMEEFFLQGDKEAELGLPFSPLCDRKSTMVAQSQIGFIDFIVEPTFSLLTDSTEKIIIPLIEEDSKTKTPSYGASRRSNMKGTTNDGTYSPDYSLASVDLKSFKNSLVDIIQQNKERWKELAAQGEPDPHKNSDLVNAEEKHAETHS

Structure (SMILES)	IC50 [1]	IC50 [2]	IC50 (Phosphodiesterase 3 [3])	IC50 [4]	IC50 (Phosphodiesterase 3 [5])
CCCCc1nc2c([nH]1)N1C(=N[C@@H]3CCC[C@@H]31)N(C)C2=O	140 nM	110 nM	38000 nM		
CC(C)CCCc1nc2c([nH]1)N1C[C@@H](C(C)C)N=C1N(C)C2=O	6 nM	12 nM	65000 nM		
CC(C)CCc1nc2c([nH]1)N1C(=N[C@@H]3CCC[C@@H]31)N(C)C2=O		14 nM	15000 nM		
CCCCCCc1nc2c([nH]1)N1C(=N[C@@H]3CCC[C@@H]31)N(C)C2=O		36 nM	12000 nM		
CCCCCCCCc1nc2c([nH]1)N1C(=N[C@@H]3CCC[C@@H]31)N(C)C2=O		33 nM		14 nM	10000 nM
CCC(CC)c1nc2c([nH]1)N1C(=N[C@@H]3CCC[C@@H]31)N(C)C2=O	1400 nM	150 nM	150000 nM		
CCCCCCc1nc2c([nH]1)N1CC3(CCCC3)N=C1N(C)C2=O	11 nM	14 nM	15000 nM		
CCCCCc1nc2c([nH]1)N1C(=N[C@@H]3CCC[C@@H]31)N(C)C2=O	40 nM	31 nM	20000 nM		
CC(C)CCc1nc2c([nH]1)N1C[C@@H](C(C)C)N=C1N(C)C2=O	22 nM	15 nM	40000 nM		
CCCCCCc1nc2c([nH]1)N1C[C@@H](C(C)C)N=C1N(C)C2=O	5 nM	25 nM	18000 nM		
CCCc1nc2c([nH]1)N1C(=N[C@@H]3CCC[C@@H]31)N(C)C2=O		350 nM	80000 nM		
CCCCCCCc1nc2c([nH]1)N1C(=N[C@@H]3CCC[C@@H]31)N(C)C2=O	30 nM	160 nM	7000 nM		
CC(C)CCCc1nc2c([nH]1)N1C(=N[C@@H]3CCC[C@@H]31)N(C)C2=O	10 nM	6 nM	35000 nM		
Cc1nc2c([nH]1)C(=O)N(C)C1=N[C@@H]3CCC[C@@H]3N12		1250 nM	> 300000 nM		
CCCC(CCC)c1nc2c([nH]1)N1C(=N[C@@H]3CCC[C@@H]31)N(C)C2=O	150 nM	60 nM	80000 nM		
CCCCCCc1nc2c([nH]1)N1CC(C)(C)N=C1N(C)C2=O	8 nM	25 nM	28000 nM		
CCc1nc2c([nH]1)N1C(=N[C@@H]3CCC[C@@H]31)N(C)C2=O	1200 nM	295 nM	150000 nM		
